Reference: patent US20130065866A1, “DENTINAL DRUG DELIVERY COMPOSITION AND SCREENING METHOD” (UNIVERSITY OF MEDICINE AND DENTISTRY OF NEW JERSEY, priority 2009, published 2013)

Columns and labels:
Assay type in all cases: cell-based, murine
[1] = test system: LPS-evoked NO production in RAW cells; test: Direct effect on NO production in RAW cells; details: for reduction of spontaneous NO production: absence of LPS stimulation; for inhibition of LPS-evoked NO production: direct treatment
Description: (§1) After the one or more time intervals (e.g., one or more minutes, hours, or days), the diffusate is collected and tested for activity against an isolated dental pulp cell or isolated population of dental pulp cells. An isolated pulpal cell or population of dental pulp cells refers to cells that are removed from their native environment (i.e., the dental pulp). The isolated cells can be cultured primary cells or cultured cell line and include, but are not limited to fibroblasts, odontoblasts, histiocytes, macrophage, granulocytes, mast cells or plasma cells. Exemplary cell lines include, but are not limited to the murine macrophage cell line, RAW 264.7; immortalized mouse odontoblast cell line, MDPC-23; and the murine fibroblast cell line, 3T3.
(§2) As indicated, in some embodiments it is determined whether the diffusate contains a sufficient amount of test agent to inhibit or decrease the expression or activity of at least one inflammatory mediator of the dental pulp cell. In accordance with this embodiment, the isolated pulpal cell or population of dental pulp cells can be challenged with an inflammation-provoking stimulus (e.g., Lipopolysaccharide (LPS), N-formyl-methionyl-leucyl-phenylalanine, or phorbol myristate acetate) either before or after being contacted with the diffusate, so that the effect of the drug diffusing through the dentin barrier on inflammatory mediator production is assessed.
(§3) Prostaglandins such as PGE2 and nitric oxide (NO) are inflammatory mediators that are generated in injured tissue and influence vascular tissues, nociceptive nerve endings and immune cells. For example, exposure of immune and other cells to bacterial toxins such as LPS evokes production of PGE2 and NO. Other known mediators of inflammation include, but are not limited to, bradykinin, histamine, leukotrienes (Bd, Cd, Dd, Ed) IL-8, and neutrophil and macrophage lysosomal enzymes. The effect of test agents on the expression or activity of one or more of the above-referenced inflammatory mediators can be determined by conventional methods. For example, mRNA expression can be determined by dot blot, northern blot, or reverse transcriptase (RT)-PCR; protein expression can be determined by western blot or ELISA analysis; and NO production can be determined using a Griess reaction assay (e.g., EMSNOTOT kit) or ozone-based chemiluminescence assay.
The direct effect of drugs and lipids on inflammatory mediator production in RAW cells was determined. […] Measurable amounts of NO were produced in the absence of LPS stimulation (˜15 μM).

[2] = test system: LPS-evoked PGE2 production in RAW cells; test: Direct effect on LPS-evoked PGE2 production in RAW cells; details: direct treatment
Description: as §1, §2
as §3, with “For example, exposure of immune and other cells to bacterial toxins such as LPS evokes production of PGE2 and NO. Other known mediators of inflammation include, but are not limited to, bradykinin, histamine, leukotrienes (Bd, Cd, Dd, Ed) IL-8, and neutrophil and macrophage lysosomal enzymes.” left out, “assay. […]” for “assay.”

RAW cells = test: Toxicity to cells in the RAW cell study; details: levels used in this study
Protocol: The direct effect of drugs and lipids on inflammatory mediator production in RAW cells was determined.

[3] = test system: LPS-evoked NO production in RAW cells; test: Transdentinal diffusion; diffusate applied to LPS-stimulated RAW cells, NO; details: 24 hours of diffusion through dentin; diffusate on RAW cells stimulated with LPS
Protocol: (§4) This screening method of the invention includes the steps of contacting a coronal surface of an isolated dentin sample with a test agent, incubating the test agent and dentin sample so that diffusate is formed on the pulpal side of the dentin sample, contacting an isolated dental pulp cell with the diffusate, and determining whether the diffusate contains a sufficient amount of test agent to act on a cell of the dental pulp. In one embodiment, it is determined whether the diffusate contains a sufficient amount of test agent to inhibit or decrease the expression or activity of at least one inflammatory mediator of the dental pulp cell (e.g., nociceptive nerve endings, blood vesicle cells or inflammatory cells).
(§5) The dentins sample can be isolated by conventional methods and used in combination with a commercially available two-chamber diffusion cell, wherein the partition separating the two chambers holds the dentin sample (e.g., a dentin disk) in an orientation so that the dentin tubules provide the only connection between the two chambers. See, e.g., Hanks, et al. (1993) J. Dent. Res. 72:931-938; and Puapichartdumrong, et al. (2003) Internatl. Endodont. J. 36:674-81. […]

[4] = test system: PGE2 production in LPS-stimulated RAW cells; test: Transdentinal diffusion; diffusate applied to LPS-stimulated RAW cells, PGE2; details: 24 hours of diffusion through dentin; diffusate on RAW cells stimulated with LPS
Protocol: as §4, §5

| SMILES | reduction of spontaneous NO production [1] | inhibition of LPS-evoked NO production [1] | inhibition of LPS-evoked PGE2 production ([2]; compared to oleic acid) | reduction of LPS-evoked NO production ([1]; 0.5 mM and lower (0.05, 0.005, 0.0005 mM)) | reduction of LPS-evoked NO production ([1]; 5 mM) | toxicity to cells (RAW cells) | LPS-evoked NO production after diffusate application [3] | PGE2 production after diffusate application [4] | inhibition of LPS-evoked PGE2 production ([2]; 50 μM) | effect on LPS-evoked NO production ([1]; 50 μM) |
| --- | --- | --- | --- | --- | --- | --- | --- | --- | --- | --- |
| CC/C=C\C/C=C\C/C=C\C/C=C\C/C=C\C/C=C\CCC(=O)O [DHA, docosahexaenoic] | small (not statistically significant) reduction | inhibited NO production but to a lesser extent than aspirin | – | – | – | – | – | – | – | – |
| CC(=O)Oc1ccccc1C(=O)O [aspirin, acetylsalicyclic acid] | small (not statistically significant) reduction | effectively inhibited LPS-evoked NO production | effective inhibitors of LPS-evoked PGE2 production | did not significantly reduce LPS-evoked NO production | significantly reduced NO production | non-toxic to cells | depressed | significantly reduced | – | – |
| CC(C)Cc1ccc(C(C)C(=O)O)cc1 (centres unmarked) [ibuprofen] | – | did suppress NO production | effective inhibitors of LPS-evoked PGE2 production | – | – | – | did not attenuate LPS-stimulated NO production | significantly reduced | inhibited LPS-evoked PGE2 production | no effect on LPS-evoked NO production |
| CCCCCCCC/C=C\CCCCCCCC(=O)O [oleic acid] | – | not shared | – | – | – | – | – | – | – | – |
